The record followed here is ChEMBL document CHEMBL5543094, “Exploration of P1 and P4 modifications of nirmatrelvir: Design, synthesis, biological evaluation, and X-ray structural studies of SARS-CoV-2 Mpro inhibitors” (Eur J Med Chem, 2024).

Type in all cases: functional, organism-based
The test system of test [1] is SARS-CoV-2. The test is described as follows: Antiviral activity against SARS-CoV-2 Wuhan 5-2N variant infected in African green monkey Vero E6 cells measured 3 days post infection by WST-8 assay. The note with it: Severe acute respiratory syndrome coronavirus 2, Wuhan 5-2N, Vero C1008, 72 h.
Test [2] relates to SARS-CoV-2. As to the kind of experiment: Antiviral activity against SARS-CoV-2 Alpha QK002 variant infected in African green monkey Vero E6 cells measured 3 days post infection by WST-8 assay. The conditions noted are these: Severe acute respiratory syndrome coronavirus 2, Alpha QK002, Vero C1008, 72 h. On the technique in general: Tetrazolium assays rely on reduction of a dye to a coloured formazan, in cell work by metabolically active cells.

In test [3] the test system is SARS-CoV-2. The test is described as follows: Antiviral activity against SARS-CoV-2 Beta TY8 variant infected in African green monkey Vero E6 cells measured 3 days post infection by WST-8 assay. The conditions noted are these: Severe acute respiratory syndrome coronavirus 2, Beta TY8, Vero C1008, 72 h.
For test [4], the system named is SARS-CoV-2. The test is described as follows: Antiviral activity against SARS-CoV-2 Gamma TY7 variant infected in African green monkey Vero E6 cells measured 3 days post infection by WST-8 assay. The conditions noted are these: Severe acute respiratory syndrome coronavirus 2, Gamma TY7, Vero C1008, 72 h.
Test [5] relates to SARS-CoV-2. As to the kind of experiment: Antiviral activity against SARS-CoV-2 Delta K1734 variant infected in African green monkey Vero E6 cells measured 3 days post infection by WST-8 assay. The conditions noted are these: Severe acute respiratory syndrome coronavirus 2, Delta K1734, Vero C1008, 72 h.
The test system of test [6] is SARS-CoV-2. As to the kind of experiment: Antiviral activity against SARS-CoV-2 Omicron 929 variant infected in African green monkey Vero E6 cells measured 7 days post infection by WST-8 assay. The conditions noted are these: Severe acute respiratory syndrome coronavirus 2, Omicron 929, Vero C1008, 168 h.

Structures are written as SMILES.

For orientation: EC50 means the midpoint of the concentration-response curve. As to `CCC(CC)COC(=O)[C@H](C)N[P@](=O)(OC[C@H]1O[C@@](C#N)(c2ccc3c(N)ncnn23)[C@H](O)[C@@H]1O)Oc1ccccc1`, the 50% effective concentration (EC50) amounted to 3800 nM in test [1]; 3500 nM in test [2]; 2800 nM in test [3]; 2600 nM in test [4]; 2900 nM in test [5]; 4200 nM in test [6].
For the compound `CC(C)(C)[C@H](NC(=O)C(Cl)(Cl)Cl)C(=O)N1C[C@H]2[C@@H]([C@H]1C(=O)N[C@H](C#N)C[C@@H]1CCCNC1=O)C2(C)C`, the 50% effective concentration (EC50) was 700 nM in test [1]; 800 nM in test [2]; 2400 nM in test [3]; 2000 nM in test [4]; 600 nM in test [5]; 4000 nM in test [6].
Consider `CC(C)(C)[C@H](NC(=O)C(F)(F)F)C(=O)N1C[C@H]2[C@@H]([C@H]1C(=O)N[C@H](C#N)C[C@@H]1CCNC1=O)C2(C)C`, for which the concentration giving a half-maximal response (EC50) was 3000 nM in test [1]; 2500 nM in test [2]; 3700 nM in test [3]; 4000 nM in test [4]; 2900 nM in test [5]; 3100 nM in test [6].
